According to patent US20210085640A1, “ACYLATED CATECHIN POLYPHENOLS AND METHODS OF THEIR USE FOR THE TREATMENT OF CANCER” (Flagship Pioneering Innovations V, Inc., priority 2018, published 2021):

Tests used:
Type in all cases: cell-based
AGS stomach cancer cells = assay: Cancer cell survival (CellTiter-Glo), AGS; set-up: Cell survival at given concentration: unit not given here
Outline: (§1)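 Cells were seeded at 4×10^3 cells/well and left overnight at 37 C, 5% CO2, then exposed in triplicate to nine compound concentrations for 72 h. Dosing solutions were made at 10× final (1 μM-10 mM fatty acids, 100 nM-1 mM other compounds). CellTiter-Glo luminescence, normalised to untreated and medium-only wells, gave IC50.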

A549 lung cancer cells = assay: Cancer cell survival (CellTiter-Glo), A549; conditions: 72 h
Outline: as §1

[1] = system: Daudi lymphoma cancer cells; assay: Cancer cell survival (CellTiter-Glo), Daudi; conditions: 72 h
Outline: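 Daudi cells (4×10^3/well) were exposed for 72 h at 37 °C to nine concentrations of compound, added as 10× solutions spanning 1 μM–10 mM (fatty acids) or 100 nM–1 mM (others). CellTiter-Glo luminescence gave % survival versus untreated, medium-blank corrected; IC50 derived.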

MCF7 breast cancer cells = assay: Cancer cell survival (CellTiter-Glo), MCF7; conditions: 72 h
Outline: as §1

T24 bladder cancer cells = assay: Cancer cell survival (CellTiter-Glo), T24; conditions: 72 h
Outline: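 T24 cells seeded at 4×10^3 cells/well overnight, then exposed 72 h at 37 C, 5% CO2 to nine concentrations in triplicate. Survival measured by CellTiter-Glo luminescence relative to untreated and medium controls; IC50 derived.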

A-431 skin cancer cells = assay: Cancer cell survival (CellTiter-Glo), A-431; set-up: Cell survival at given concentration: unit not given here; conditions: A-431 cells, 72 h
Outline: as §1

[2] = system: PC-3 prostate cancer cells; assay: Cancer cell survival (CellTiter-Glo), PC-3; conditions: PC-3 cells, 72 h
Outline: as §1

[3] = system: HCT 116 colorectal cancer cells; assay: Cancer cell survival (CellTiter-Glo), HCT 116; conditions: HCT 116 cells, 72 h
Outline: as §1

SMILES: O=c1oc2cc(O)ccc2c2cc(O)c(O)cc12 [urolithin C]
- Cell survival at given concentration (AGS stomach cancer cells; 101 nM): 0.98
- Cell survival at given concentration (AGS stomach cancer cells; 318 nM): 0.99
- Cell survival at given concentration (AGS stomach cancer cells; 1 μM, Table 10.1): 0.98
- Cell survival at given concentration (AGS stomach cancer cells; 3 μM, Table 10.1): 0.99
- Cell survival at given concentration (AGS stomach cancer cells; 10 μM, Table 10.1): 1.02
- Cell survival at given concentration (AGS stomach cancer cells; 32 μM, Table 10.1): 0.86
- Cell survival at given concentration (AGS stomach cancer cells; 100 μM, Table 10.1): 0.15
- Cell survival at given concentration (AGS stomach cancer cells; 316 μM): 0.04
- Cell survival at given concentration (AGS stomach cancer cells; 1000 μM): 0.02
- IC50 (AGS stomach cancer cells; Table 10.1): 56 µM
- Cell survival at given concentration (A549 lung cancer cells; 101 nM): 0.99
- Cell survival at given concentration (A549 lung cancer cells; 318 nM): 0.99
- Cell survival at given concentration (A549 lung cancer cells; 1 μM): 1.02
- Cell survival at given concentration (A549 lung cancer cells; 3 μM): 1.04
- Cell survival at given concentration (A549 lung cancer cells; 10 μM): 1.04
- Cell survival at given concentration (A549 lung cancer cells; 32 μM): 1.02
- Cell survival at given concentration (A549 lung cancer cells; 100 μM): 0.36
- Cell survival at given concentration (A549 lung cancer cells; 316 μM): 0.16
- Cell survival at given concentration (A549 lung cancer cells; 1000 μM): 0.12
- IC50 (A549 lung cancer cells; Table 7.1): 93.5 µM
- Cell survival at given concentration ([1]; 101 nM): 0.99
- Cell survival at given concentration ([1]; 318 nM): 0.99
- Cell survival at given concentration ([1]; 1 μM): 1.00
- Cell survival at given concentration ([1]; 3 μM): 1.00
- Cell survival at given concentration ([1]; 10 μM): 0.89
- Cell survival at given concentration ([1]; 32 μM): 0.36
- Cell survival at given concentration ([1]; 100 μM): 0.18
- Cell survival at given concentration ([1]; 316 μM): 0.16
- Cell survival at given concentration ([1]; 1000 μM): 0.07
- IC50 ([1]; Table 4.1): 24.1 µM
- Cell survival at given concentration (MCF7 breast cancer cells; 101 nM): 0.97
- Cell survival at given concentration (MCF7 breast cancer cells; 318 nM): 0.99
- Cell survival at given concentration (MCF7 breast cancer cells; 1 μM): 0.97
- Cell survival at given concentration (MCF7 breast cancer cells; 3 μM): 1.02
- Cell survival at given concentration (MCF7 breast cancer cells; 10 μM): 1.07
- Cell survival at given concentration (MCF7 breast cancer cells; 32 μM): 0.76
- Cell survival at given concentration (MCF7 breast cancer cells; 100 μM): 0.22
- Cell survival at given concentration (MCF7 breast cancer cells; 316 μM): 0.21
- Cell survival at given concentration (MCF7 breast cancer cells; 1000 μM): 0.20
- IC50 (MCF7 breast cancer cells; Table 5.1): 34.7 µM
- Cell survival at given concentration (T24 bladder cancer cells; 101 nM): 1.00
- Cell survival at given concentration (T24 bladder cancer cells; 318 nM): 0.94
- Cell survival at given concentration (T24 bladder cancer cells; 1 μM): 0.96
- Cell survival at given concentration (T24 bladder cancer cells; 3 μM): 0.96
- Cell survival at given concentration (T24 bladder cancer cells; 10 μM): 0.93
- Cell survival at given concentration (T24 bladder cancer cells; 32 μM): 0.37
- Cell survival at given concentration (T24 bladder cancer cells; 100 μM): 0.12
- Cell survival at given concentration (T24 bladder cancer cells; 316 μM): 0.08
- Cell survival at given concentration (T24 bladder cancer cells; 1000 μM): 0.07
- IC50 (T24 bladder cancer cells; Table 3.1, read-out: 1050): 26.1 µM
- Cell survival at given concentration (A-431 skin cancer cells; 101 nM): 1.02
- Cell survival at given concentration (A-431 skin cancer cells; 318 nM): 1.02
- Cell survival at given concentration (A-431 skin cancer cells; 1 μM): 1.02
- Cell survival at given concentration (A-431 skin cancer cells; 3 μM): 1.03
- Cell survival at given concentration (A-431 skin cancer cells; 10 μM): 1.02
- Cell survival at given concentration (A-431 skin cancer cells; 32 μM): 0.95
- Cell survival at given concentration (A-431 skin cancer cells; 100 μM): 0.34
- Cell survival at given concentration (A-431 skin cancer cells; 316 μM): 0.20
- Cell survival at given concentration (A-431 skin cancer cells; 1000 μM): 0.06
- IC50 (A-431 skin cancer cells; Table 9.1): 76.7 µM
- Cell survival at given concentration ([2]; 101 nM): 1.03
- Cell survival at given concentration ([2]; 318 nM): 1.00
- Cell survival at given concentration ([2]; 1 μM): 1.04
- Cell survival at given concentration ([2]; 3 μM): 1.01
- Cell survival at given concentration ([2]; 10 μM): 1.07
- Cell survival at given concentration ([2]; 32 μM): 0.93
- Cell survival at given concentration ([2]; 100 μM): 0.08
- Cell survival at given concentration ([2]; 316 μM): 0.04
- Cell survival at given concentration ([2]; 1000 μM): 0.03
- IC50 ([2]; Table 8.1): 52.6 µM
- Cell survival at given concentration ([3]; 101 nM): 1.00
- Cell survival at given concentration ([3]; 318 nM): 0.99
- Cell survival at given concentration ([3]; 1 μM): 1.00
- Cell survival at given concentration ([3]; 3 μM): 0.99
- Cell survival at given concentration ([3]; 10 μM): 0.94
- Cell survival at given concentration ([3]; 32 μM): 0.34
- Cell survival at given concentration ([3]; 100 μM): 0.02
- Cell survival at given concentration ([3]; 316 μM): 0.01
- Cell survival at given concentration ([3]; 1000 μM): 0.01
- IC50 ([3]; Table 6.1): 25.5 µM
